17 compounds from patent US9650365B2 (UNIVERSITY OF CONNECTICUT, priority 2014, dated 2017) can be followed below.

Read-outs that look alike come from different tables or passages of the source.

The subject of one test is HUVEC. As to the kind of experiment: HUVEC proliferation (MTS). The format is cell-based, human. From the text:
In vivo angiogenesis is dependent on endothelial cell proliferation; therefore, the inhibition of HUVEC proliferation is commonly utilized as an early stage in vitro model of anti-angiogenic activity. […] Under normal conditions, HUVECs plated and grown on Matrigel migrate towards each other, align, and form tubes that resemble in vivo capillary beds. This assay is generally considered a more robust model of angiogenesis as it requires several aspects of proper vessel formation, including adhesion, migration, and tube formation.
HUVEC Cell Viability and Proliferation. HUVEC cell viability and proliferation will be assessed by measuring cellular metabolic activity using MTT (viability) or MTS (proliferation) according to the manufacturer's instructions. HUVECs (3000 cells/well) are seeded in a 96-well plate and allowed to attach overnight. […] For viability, the final value is a corrected optical density (570 nm-690 nm). All viability and GI50 values are from a minimum of three separate experiments performed in triplicate.
HUVEC Cell Viability and Proliferation. HUVEC cell proliferation was assessed by measuring cellular metabolic activity using standard MTS/PMS protocols according to manufacturer's instructions. Briefly, HUVECs (3,000 cells/well) were seeded in a 96-well plate and allowed to attach overnight. Cells were treated with varying concentrations of drug as indicated and proliferation was assessed after 72 h with MTS.

In test [1] the test system is Hh signaling (Gli1 mRNA) in ASZ cells. As to the kind of experiment: Down-regulation of endogenous Gli1 mRNA in ASZ cells. The format is cell-based, murine. Conditions: Mus musculus. The procedure: (§1) General Information. Protocols for general cell culture, qPCR and Hh inhibition in C3H10T1/2 and ASZ cells are as previously described.^28 Protocols for the initiation and growth of Math1-Cre-ER; Ptc^fl/fl medulloblastoma tumors, isolation and in vitro culture of MERP MB cells, as wells as the anti-proliferation and qPCR studies performed in these cells were as previously described.^a Sonic Hedgehog (C25II) recombinant mouse protein was purchased from Life Technologies. aData was analyzed using GraphPad Prism 5 and reported values represent mean±SEM for at least two separate experiments performed in triplicate.
(§2) In this well-studied model system for evaluating small molecule inhibition of Hh signaling, addition of an exogenous Hh agonist (recombinant Hh ligand or small molecule) results in a characteristic increase in Gli1 mRNA expression. Concomitant incubation with a pathway inhibitor reduces Gli1 expression. Analogues that reduced Gli1 mRNA levels below 20% in this assay were subsequently evaluated for their ability to reduce Gli1 mRNA expression levels in a concentration-dependent fashion in these cells and the Hh-dependent murine BCC cell line ASZ. In addition, several compounds were evaluated for their anti-proliferative effects in primary Hh-dependent medulloblastoma cells isolated from conditional patched knockout (Math1-Cre-ER; Ptc^fl/fl, MERP) mice. […] Finally, each of these analogues was evaluated for its ability to inhibit proliferation in human umbilical vein […] cells (HUVECs). In vivo angiogenesis is dependent on endothelial cell proliferation; therefore, the inhibition of HUVEC proliferation is commonly utilized as an early stage in vitro model of anti-angiogenic activity.

The test system of test [2] is Hh signaling (Gli1 mRNA) in C3H10T1/2 cells. Description: Down-regulation of endogenous Gli1 mRNA in Hh-dependent C3H10T1/2 cells. Format: cell-based, mouse. Conditions: for mrna remaining at 1 µM / IC50: Mus musculus; for mrna remaining at 1 µM: read-out: % Gli expression (1 μM). The method, then: To determine whether the triazole functionality was required for inhibition of Hh signaling, the ability of Analogue 1 to down-regulate the well-characterized Hh pathway target gene Gli1 in the Hh-dependent C3H10T1/2 cell line was determined. In this cellular model, activation of the pathway with exogenous recombinant Hh ligand results in a characteristic up-regulation of Gli1 mRNA, while concomitant administration of a pathway inhibitor reduces Gli1 expression.
as §1, §2

Setting [3] is: Homo sapiens, HUVEC, 72 h, read-out: GI50 (μM) HUVEC.
Where [4] appears, read: 48 hr incubation, read-out: IC50 (μM) ASZ.
Setting [5] is: C3H 10T1/2, 1 μM, 24 hr incubation, relative to recombinant Hh ligand control (100%).
[6] abbreviates: C3H 10T1/2, 24 hr incubation, read-out: IC50 (μM) C3H10T1/2.
[7] abbreviates: Homo sapiens, HUVEC, 72 h, read-out: GI50 (μM) HUVEC, 72 h.
The mark [8] stands for this setting: 48 h, read-out: IC50 (μM) ASZ, 48 hr incubation.
[9] abbreviates: C3H 10T1/2, 24 h, read-out: IC50 (μM) C3H10T1/2, 24 hr incubation.
Setting [10] is: C3H 10T1/2, read-out: IC50 (μM) Gli1-C3Hs.

In the case of “1-(sec-butyl)-4-(4-(4-(4-((2-(2,4-dichlorophenyl)-2-methyl-1,3-dioxolan-4-yl)methoxy)phenyl)piperazin-1-yl)phenyl)-1H-1,2,4-triazol-5(4H)-one [Compound 2a]”, in the test with HUVEC (read-out: GI50 HUVEC proliferation), the GI50 was 0.49 µM.

Take `CCC(C)n1ncn(-c2ccc(N3CCN(c4ccc(OCC5COC(Cn6cncn6)(c6ccccc6)O5)cc4)CC3)cc2)c1=O` (centres unmarked) [Compound 3a, 4-(4-(4-(4-((2-((1H-1,2,4-triazol-1-yl)methyl)-2-phenyl-1,3-dioxolan-4-yl)methoxy)phenyl)piperazin-1-yl)phenyl)-1-(sec-butyl)-1H-1,2,4-triazol-5(4H)-one]: the GI50 with HUVEC (setting [3]) is 8.3 ± 0.7 µM. Besides, the IC50 is 0.45 ± 0.06 µM in test [1] (setting [4]) and 0.42 ± 0.2 µM in test [2] (setting [6]). Besides, in test [2] (setting [5]), the mrna remaining at 1 µM worked out at 13.1 ± 1.2%.

On to `CCC(C)n1ncn(-c2ccc(N3CCN(c4ccc(OCC5COC(C)(Cn6cncn6)O5)cc4)CC3)cc2)c1=O` (centres unmarked) [Compound 4a, 4-(4-(4-(4-((2-((1H-1,2,4-triazol-1-yl)methyl)-2-methyl-1,3-dioxolan-4-yl)methoxy)phenyl)piperazin-1-yl)phenyl)-2-(sec-butyl)-2,4-dihydro-3H-1,2,4-triazol-3-one], for which the GI50 in the test on HUVEC (setting [3]) was 18.4 ± 4.5 µM. The mrna remaining at 1 µM in test [2] (setting [5]) turned out to be 61.4 ± 3.5%.

Take `CCC(C)n1ncn(-c2ccc(N3CCN(c4ccc(OCC5COC(C)(C)O5)cc4)CC3)cc2)c1=O` (centres unmarked) [Compound 5a, 1-(sec-butyl)-4-(4-(4-(4-((2,2-dimethyl-1,3-dioxolan-4-yl)methoxy)phenyl)piperazin-1-yl)phenyl)-1H-1,2,4-triazol-5(4H)-one]: the GI50 in the test with HUVEC (setting [3]) is greater than 100 µM. Also, the mrna remaining at 1 µM in test [2] (setting [5]) turned out to be 71.4 ± 5.5%.

Consider `CC[C@H](C)n1ncn(-c2ccc(N3CCN(c4ccc(OCC5COC(Cn6cncn6)(c6ccc(Cl)cc6Cl)O5)cc4)CC3)cc2)c1=O` (stereo partly drawn) [Compound 6a, 4-(4-(4-(4-((2-((1H-1,2,4-triazol-1-yl)methyl)-2-(2,4-dichlorophenyl)-1,3-dioxolan-4-yl)methoxy)phenyl)piperazin-1-yl)phenyl)-2-((S)-sec-butyl)-2,4-dihydro-3H-1,2,4-triazol-3-one], for which the GI50 in the test with HUVEC (setting [7]) was determined as 2.5 ± 0.3 µM. Moreover, the IC50 was found to be 0.14 ± 0.008 µM in test [1] (setting [8]) and 0.16 ± 0.04 µM in test [2] (setting [9]). In addition, in test [2] (C3H 10T1/2, 24 h), the mrna remaining at 1 µM was 6.9 ± 3.1%.

With `CC[C@@H](C)n1ncn(-c2ccc(N3CCN(c4ccc(OCC5COC(Cn6cncn6)(c6ccc(Cl)cc6Cl)O5)cc4)CC3)cc2)c1=O` (stereo partly drawn) [Compound 7a, 4-(4-(4-(4-((2-((1H-1,2,4-triazol-1-yl)methyl)-2-(2,4-dichlorophenyl)-1,3-dioxolan-4-yl)methoxy)phenyl)piperazin-1-yl)phenyl)-2-((R)-sec-butyl)-2,4-dihydro-3H-1,2,4-triazol-3-one], the GI50 with HUVEC (setting [7]) worked out at 1.7 ± 0.4 µM. Besides, the IC50 in test [1] (setting [8]) was determined as 0.16 ± 0.07 µM; in test [2] (setting [9]), 0.14 ± 0.04 µM. The mrna remaining at 1 µM in test [2] (C3H 10T1/2, 24 h) worked out at 3 ± 0.9%.

For the compound `CCCn1ncn(-c2ccc(N3CCN(c4ccc(OCC5COC(Cn6cncn6)(c6ccc(Cl)cc6Cl)O5)cc4)CC3)cc2)c1=O` (centres unmarked) [Compound 8a, 4-(4-(4-(4-((2-((1H-1,2,4-triazol-1-yl)methyl)-2-(2,4-dichlorophenyl)-1,3-dioxolan-4-yl)methoxy)phenyl)piperazin-1-yl)phenyl)-1-propyl-1H-1,2,4-triazol-5(4H)-one], in the test on HUVEC (setting [7]), the GI50 was found to be 4.7 ± 0.3 µM. For the same compound, the mrna remaining at 1 µM in test [2] (C3H 10T1/2, 24 h) amounted to 58.5 ± 6.4%.

For the compound `O=[N+]([O-])c1ccc(N2CCN(c3ccc(OCC4COC(Cn5cncn5)(c5ccc(Cl)cc5Cl)O4)cc3)CC2)cc1` (centres unmarked) [Compound 10a, 1-(4-((2-((1H-1,2,4-triazol-1-yl)methyl)-2-(2,4-dichlorophenyl)-1,3-dioxolan-4-yl)methoxy)phenyl)-4-(4-nitrophenyl)piperazine], in the test with HUVEC (setting [7]), the GI50 was found to be 8.4 ± 0.7 µM. In addition, the IC50 was determined as 0.09 ± 0.01 µM in test [1] (setting [8]) and 0.13 ± 0.03 µM in test [2] (setting [9]). Also, the mrna remaining at 1 µM in test [2] (C3H 10T1/2, 24 h) came to 1.5 ± 0.05%.

As for `CC[C@H](C)n1ncn(-c2ccc(N3CCN(c4ccc(OC[C@H]5CO[C@](C)(c6ccc(Cl)cc6Cl)O5)cc4)CC3)cc2)c1=O` [Compound 14a, 2-((S)-sec-butyl)-4-(4-(4-(4-(((2S,4S)-2-(2,4-dichlorophenyl)-2-methyl-1,3-dioxolan-4-yl)methoxy)phenyl)piperazin-1-yl)phenyl)-2,4-dihydro-3H-1,2,4-triazol-3-one], the GI50 in the test on HUVEC (setting [3]) amounted to 7.7 ± 4.4 µM. Besides, the IC50 in test [1] (setting [4]) was found to be 2.5 ± 0.7 µM; in test [2] (setting [6]) it was 1.1 ± 0.17 µM.

Take `CC[C@H](C)n1ncn(-c2ccc(N3CCN(c4ccc(OC[C@H]5CO[C@@](C)(c6ccc(Cl)cc6Cl)O5)cc4)CC3)cc2)c1=O` [Compound 15a, 2-((S)-sec-butyl)-4-(4-(4-(4-(((2R,4S)-2-(2,4-dichlorophenyl)-2-methyl-1,3-dioxolan-4-yl)methoxy)phenyl)piperazin-1-yl)phenyl)-2,4-dihydro-3H-1,2,4-triazol-3-one]: the GI50 in the test with HUVEC (setting [3]) was determined as 78.3 ± 17.3 µM. The IC50 in test [1] (setting [4]) was 0.55 ± 0.07 µM; in test [1] (read-out: IC50 down-regulation of Gli1 in ASZ cells), 0.55 µM; in test [2] (setting [6]), greater than 10 µM; in test [2] (C3H 10T1/2, read-out: inactive in the C3H10T1/2 MEFs at concentrations up to), greater than 10 µM.

`CC[C@H](C)n1ncn(-c2ccc(N3CCN(c4ccc(OC[C@@H]5CO[C@@](C)(c6ccc(Cl)cc6Cl)O5)cc4)CC3)cc2)c1=O` [Compound 16a, 2-((S)-sec-butyl)-4-(4-(4-(4-(((2R,4R)-2-(2,4-dichlorophenyl)-2-methyl-1,3-dioxolan-4-yl)methoxy)phenyl)piperazin-1-yl)phenyl)-2,4-dihydro-3H-1,2,4-triazol-3-one]: the GI50 in the test on HUVEC (setting [3]) was 18.3 ± 11.8 µM. The IC50 in test [1] (setting [4]) turned out to be 0.38 ± 0.07 µM; in test [2] (setting [6]), 0.47 ± 0.001 µM.

Consider `CCC(C)n1ncn(-c2ccc(N3CCN(c4ccc(O)cc4)CC3)cc2)c1=O` (centres unmarked) [Compound 45a], for which, in the test on HUVEC (72 h, read-out: GI50 (μM) HUVEC), the GI50 was greater than 100 µM. For the same compound, in test [2] (1 μM, 24 hr incubation, relative to recombinant Hh ligand control (100%)), the “% Gli expression (1 μM)” value is recorded as 45.7 ± 3.0%.

For the compound `CS(=O)(=O)c1ccc(C(=O)Nc2ccc(Cl)c(-c3ccccn3)c2)c(Cl)c1` [GDC-0449, reference compound], the IC50 turned out to be 0.04 ± 0.01 µM in test [1] (down-regulation of endogenous Gli1 mRNA, read-out: Hh pathway inhibition ASZ) and 0.082 ± 0.02 µM in test [2] (C3H 10T1/2, down-regulation of endogenous Gli1 mRNA, read-out: Hh pathway inhibition C3H10T1/2).

For the compound `C[C@H](O)Cn1ncn(-c2ccc(N3CCN(c4ccc(OCC5COC(Cn6cncn6)(c6ccc(Cl)cc6Cl)O5)cc4)CC3)cc2)c1=O` (some centres unmarked) [Itz-psz #1 (S−)], the IC50 worked out at 0.15 ± 0.01 µM in test [1] (read-out: IC50 (μM) Gli1-ASZs) and 0.45 ± 0.09 µM in test [2] (setting [10]).

`C[C@@H](O)Cn1ncn(-c2ccc(N3CCN(c4ccc(OCC5COC(Cn6cncn6)(c6ccc(Cl)cc6Cl)O5)cc4)CC3)cc2)c1=O` (some centres unmarked) [Itz-psz #2 (R−)]: the values for the IC50 in test [1] (read-out: IC50 (μM) Gli1-ASZs) and in test [2] (setting [10]) were 0.1 ± 0.01 µM and 0.18 ± 0.02 µM, respectively.

In the case of `CC(=O)N1CCN(c2ccc(OCC3COC(Cn4ccnc4)(c4ccc(Cl)cc4Cl)O3)cc2)CC1` (centres unmarked) [ketoconazole, reference compound], the “Hh inhibitory activity relative to ITZ” value in test [2] (1 μM) is reported as “significant reduction in Hh inhibitory activity”.

Take `CC(C)N1CCN(c2ccc(OCC3COC(Cn4cncn4)(c4ccc(Cl)cc4Cl)O3)cc2)CC1` (centres unmarked) [terconazole, reference compound]: the “Hh inhibitory activity relative to ITZ” value in test [2] (1 μM) is “significant reduction in Hh inhibitory activity”.
